{"source": "patent US20110257236A1", "about": "“SOLID SOLUTION OF VALINE, ISOLEUCINE, LEUCINE AND ITS MANUFACTURING METHOD” (AJINOMOTO CO., INC., priority 2008, published 2011)", "key": {"[1]": {"assay": "Dissolution speed: time until 1 g of powder dissolves completely in 100 ml warm water at 50° C., stirring 550 rpm", "format": "physicochemical", "procedure": "As to the dissolution speed, 1 g of powder was dropped into 100 ml of warm water at 50° C. with stirring at a number of revolutions of 550 rpm (using a 200 ml beaker and a magnetic stirrer), and the time until dissolving completely was measured. The time was employed as an indicator of the dissolution speed.\n(§1) As to the dissolution speed, 1 g of powder was dropped into 100 ml of warm water at 50° C. or water at ordinary temperature with stirring at a number of revolutions of 550 rpm (using a 200 ml beaker and a magnetic stirrer), and the time until dissolving completely was measured. A mean value of twice measurement was employed as an indicator of the dissolution speed."}, "[2]": {"assay": "Dissolution speed: time until 1 g of powder dissolves completely in 100 ml water at ordinary temperature, stirring 550 rpm", "format": "physicochemical", "conditions": "Table 4, 25 degrees (ordinary temperature), 1 g in 100 ml water, mean of twice measurement", "procedure": "as §1"}, "[3]": {"assay": "Mean particle size D50 by digital image analysis type particle size distribution meter", "format": "physicochemical", "excerpt": "The size of the solid solution of the invention is preferably 50-1000 μm as a mean particle size. The mean particle size as used herein refers to the number median particle size of sieve diameter D50. In view of dissolution speed taking melting ability in the mouth of solid foods and usability as solid beverages into consideration, too large crystals are unsuitable for practical use. Too small crystals are also unsuitable, due to being choked by dusting upon eating and dusting loss upon manufacturing. As to the mean particle size, D50 was measured by a digital image analysis type particle size distribution meter (Ana Tec As Norway). […]"}, "[4]": {"conditions": "at 20° C.; water; cited from earlier work"}, "[5]": {"conditions": "Table 1, 1 g in 100 ml warm water at 50° C., time until dissolving completely"}, "[6]": {"conditions": "Table 5, 50 degrees, 1 g in 100 ml warm water, mean of twice measurement"}}, "data": [{"smiles": "CC(C)[C@H](N)C(=O)O", "note": "[Val, L-valine]", "values": [{"measurement": "Dissolution Speed", "setting": "[1]; [5]", "value": 118, "unit": "s"}, {"measurement": "Dissolution Speed", "setting": "[1]; [6]", "value": 117.5, "unit": "s"}, {"measurement": "Dissolution Speed", "setting": "[2]", "value": 142, "unit": "s"}, {"measurement": "Mean Particle Size", "setting": "[3]; Table 1", "value": 210, "unit": "μm"}, {"measurement": "Mean Particle Size", "setting": "[3]; Table 4", "value": 210, "unit": "μm"}, {"measurement": "Mean Particle Size", "setting": "[3]; Table 5", "value": 210, "unit": "μm"}, {"measurement": "solubility", "setting": "[4]", "value": 5.75, "unit": "g"}]}, {"smiles": "CC[C@H](C)[C@H](N)C(=O)O", "note": "[Ile, L-isoleucine]", "values": [{"measurement": "Dissolution Speed", "setting": "[1]; [5]", "value": 129, "unit": "s"}, {"measurement": "Dissolution Speed", "setting": "[1]; [6]", "value": 128.5, "unit": "s"}, {"measurement": "Dissolution Speed", "setting": "[2]", "value": 287, "unit": "s"}, {"measurement": "Mean Particle Size", "setting": "[3]; Table 1", "value": 400, "unit": "μm"}, {"measurement": "Mean Particle Size", "setting": "[3]; Table 4", "value": 400, "unit": "μm"}, {"measurement": "Mean Particle Size", "setting": "[3]; Table 5", "value": 400, "unit": "μm"}, {"measurement": "solubility", "setting": "[4]", "value": 4.02, "unit": "g"}]}, {"smiles": "CC(C)C[C@H](N)C(=O)O", "note": "[Leu, L-leucine]", "values": [{"measurement": "Dissolution Speed", "setting": "[1]; [5]", "value": 130, "unit": "s"}, {"measurement": "Dissolution Speed", "setting": "[1]; [6]", "value": 130, "unit": "s"}, {"measurement": "Dissolution Speed", "setting": "[2]", "value": 320, "unit": "s"}, {"measurement": "Mean Particle Size", "setting": "[3]; Table 1", "value": 280, "unit": "μm"}, {"measurement": "Mean Particle Size", "setting": "[3]; Table 4", "value": 280, "unit": "μm"}, {"measurement": "Mean Particle Size", "setting": "[3]; Table 5", "value": 280, "unit": "μm"}, {"measurement": "solubility", "setting": "[4]", "value": 2.38, "unit": "g"}]}]}
